Assay results as given in patent US12344649B2, “Modulators of parathyroid hormone receptor (PTHR1)” (Flagship Pioneering Innovations VI, LLC, priority 2019, dated 2025).
Several values for one entry are separate records, joined by “and”; a condition that tells them apart may be missing. Equal entries are not always repeated. Where no end group is shown, it is not given here.

Assays:
Format in all cases: cell-based
[1] = molecular target: T1, PTHR1 (Homo sapiens, UniProt Q03431); assay: cAMP accumulation assay (HTRF) in CHO-K1/Ga15/PTHR1 cells; set-up: host or cells: CHO-K1 (recombinant line CHO-K1/Ga15/PTHR1); conditions: for Emax: CHO-K1, cAMP assay, fitted dose-response maximum; for EC50: read-out: −log10EC50 (converted)
T1 sequence (Q03431 27-593): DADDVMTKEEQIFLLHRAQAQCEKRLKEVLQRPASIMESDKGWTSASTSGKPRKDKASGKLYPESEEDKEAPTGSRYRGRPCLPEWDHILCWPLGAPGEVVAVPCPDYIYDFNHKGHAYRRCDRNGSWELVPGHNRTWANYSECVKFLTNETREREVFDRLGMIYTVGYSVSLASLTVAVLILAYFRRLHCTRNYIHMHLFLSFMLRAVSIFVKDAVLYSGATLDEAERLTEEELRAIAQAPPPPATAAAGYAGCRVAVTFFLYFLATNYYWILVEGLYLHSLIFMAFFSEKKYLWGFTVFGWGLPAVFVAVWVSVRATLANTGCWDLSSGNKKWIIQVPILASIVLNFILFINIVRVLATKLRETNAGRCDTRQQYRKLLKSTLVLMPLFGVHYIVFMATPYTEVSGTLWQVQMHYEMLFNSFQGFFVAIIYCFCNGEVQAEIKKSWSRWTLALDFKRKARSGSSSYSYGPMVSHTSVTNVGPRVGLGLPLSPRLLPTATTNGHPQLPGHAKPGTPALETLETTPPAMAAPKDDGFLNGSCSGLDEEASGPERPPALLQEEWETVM
Procedure: Cell suspension (5 μL) was seeded in 384-well plates at a density of 3,000 cells/well. Cells were treated with test samples (5 μL) or agonist (PTH 1-34) for 30 minutes at room temperature. cAMP-d2 working solution (5 μL) and anti-cAMP-Cryptate working solution (5 μL) were added to cells and incubated for 60 minutes at room temperature. The signal of the assay plate was read with PheraStar (BMG LABTECH, NC), an HTRF compatible reader.

[2] = molecular target: T1, PTHR1; assay: β-arrestin1 recruitment BRET assay in transfected HEK293T cells; set-up: Flag (N); Life Technologies Corporation, CA (arrestin cDNA); host or cells: HEK293T (CRL-3216, ATCC); conditions: for −log10Slope / EC50: β-arrestin1 recruitment, replicate plates; for −log10Slope: fitted curve slope; for EC50: read-out: −log10EC50 (converted)
Procedure: (§1) 18-24 hours post transfection, the Luciferase substrate Coelenterazine (NanoLight Technologies, AZ) was added to cells, a baseline BRET measurement was taken after 5 minutes incubation, and then serial dilutions of peptides, diluted in PBS (with 0.5 mM MgCl2+0.1% BSA FAF), were added to cells, and BRET signal was measured every 2 minutes for 30 minutes on Hybrid Multi-Mode Reader (Synergy Neo2, BioTek, VT). Seventy-five peptides were tested in the β-arrestin recruitment assay.

[3] = molecular target: T1, PTHR1; assay: β-arrestin2 recruitment BRET assay in transfected HEK293T cells; set-up: Flag (N); Life Technologies Corporation, CA (arrestin cDNA); host or cells: HEK293T (CRL-3216, ATCC); conditions: for −log10Slope / EC50: β-arrestin2 recruitment, replicate plates; for −log10Slope: fitted curve slope; for β-arrestin2 assay activity compared to control peptide: FIG. 2, PTH 1-34 positive control; for β2-arrestin: relative to PTH [1-34], HEK293T cells, BRET; for EC50: read-out: −log10EC50 (converted)
Procedure: as §1

[4] = cAMP assay, fitted dose-response curve
[5] = cAMP assay, fitted dose-response slope
[6] = cAMP accumulation, fitted curve slope, replicate plates
[7] = cAMP accumulation, replicate plates

Sequence	Emax [1] [%]	EC50 [1, 4] [nM]	−log10Slope [1, 5]	β-arrestin1 recruitment compared to PTH 1-34 ([2]; FIG. 1, PTH 1-34 positive control)	β1-arrestin ([2]; relative to PTH [1-34], HEK293T cells, BRET)	−log10Slope [2]	EC50 [2] [nM]	−log10Slope [3]	cAMP accumulation activity compared to control peptide ([1]; FIG. 3, PTH 1-34 positive control)	cAMP ([1]; relative to PTH [1-34], CHO-K1/Ga15/PTHR1 cells)	−log10Slope [1, 6]	EC50 [1, 7] [nM]	β-arrestin2 assay activity compared to control peptide [3]	β2-arrestin [3]	EC50 [3] [nM]
GIAVITLMLLRAYLELLEELVKILHELLRRYH [Peptide R2-52]	97.4	2570	−3.437	higher levels of recruitment of β-arrestin 1	++	2.312	0.149	−0.9875							
GIAVITLMVLRALLELQEIGRKITLELLKEYI [Peptide R2-51]	3.99	0.105	10.26			−1.524	29400	−5.93	increased activity as compared to the control peptide	++					
GVAELQLMHDLAKIRAEYELREMLLRLLEEIF [Peptide R2-1]						−0.1441		−1.954			−5.896	95.8	increased activity as compared to control	++	0.622
GVAMIQIMHDIAKIRAEYELREMLLRLLEEIF [Peptide R2-2]						−1.586 and −3.87		2.528 and −0.3398			−3.889	187			
GVAMLQIMHDLAKIKQELELKDSMKKILEDVL [Peptide R2-50]	99.8	574	−8.416			−3.908 and −4.767	1200	−1.169 and 10.26					increased activity as compared to control	++	0.0304
SVMMIQVMHDLAKIRAEYELREMLLRLLEEIF [Peptide R2-8]						−2.339	3.7	4.445			−24.9299	31.9	increased activity as compared to control	++	0.349
